Where a name gives a salt, the structure may show the parent alone.
Assays:
[1] = biological target: dipeptidyl peptidase (DP IV) (UniProt P27487); test: Determination of IC50 against DP IV (hydrolysis of Gly-Pro-pNA); format: biochemical, porcine kidney or recombinant human; details: compounds obtained by preparative synthesis
Method: Determination of IC50 Against DP IV
Substances are screened for inhibition of dipeptidyl peptidase (DP IV) by their ability to inhibit the hydrolysis of the DP IV specific substrate Glycyl-Prolyl-4-Nitroanilide (Gly-Pro-pNA). All compounds are diluted in DMSO and IC50 will be determined with 11 serial dilutions (1:2) starting with an final concentration of 100 μM. The final DMSO concentration in the assay is 5% (v/v). The method was automated using a Tecan Genesis Freedom liquid handler and a Genius Pro (Tecan) microplate reader.
A stock solution of 0.102 M HEPES is prepared. Ionic strength (I=0.32) is adjusted by KCl and pH (pH 7.6) by KOH.
2.16 mM solution of Gly-Pro-pNA in deionized water is prepared.
All samples are dissolved in DMSO preparing a 10 mM stock solution.
DP IV from porcine kidney (pDP IV) or recombinant human DP IV (rhDP IV) is diluted in HEPES buffer to a final activity of approximately 40-50 μU*ml^−1. The DP IV is stored in a cooling rack (4° C.) on the liquid handler.
The assay may becarried out at room temperature using Freedom liquid handler connected with a Genios Pro microplate reader. Each sample is measured in duplicate. Each sample stock solution is prediluted with DMSO in a ratio of 1:5 in a polypropylen 96-well plate. From this predilution 10 serial (1:2) dilutions in DMSO are prepared. 13.5 μl of the 11 DMSO dilutions and DMSO alone are transferred to the measurement microplate (duplicates) and 86.5 μl water, 100 μl HEPES buffer and 50 μl substrate solution are added to each well. The enzymatic reaction is started by addition of 20 μl enzyme solution to each well, and then the microplate is immediately transferred to the microplate reader.
After short mixing (20 s) the release of 4-Nitroanilin (pNA) is monitored at 405 nm for 30 cycles (approx. 18 min).
Post assay calculations are done by the Magellan (Tecan) and Graphit Software. The linear slopes are calculated for each well and averaged for the duplicates. The residue activities are calculated in relation to a sample containing only solvent instead of inhibitor and expressed in %. Residue activities are plotted against the log of inhibitor concentrations and IC50 is calculated by an 4-parameter fitting ranging from 0 to 100%.

[2] = biological target: T1, DP IV (Homo sapiens, UniProt P27487); test: Ki and inhibition type, DP IV; format: biochemical; details: compounds obtained by preparative synthesis
Method: Measurement of DP IV activities for Ki determination is carried out as described for IC50. For Ki determination samples were analysed in triplicates. 7 serial dilutions of the inhibitor (range calculated from the IC50 determination) in water are analyzed with 4 serial dilutions of the substrate.
Data are analysed by non-linear regression to the inhibitor equations using Graphit software. Ki-value and inhibition type are determined using the inhibitor equation (competitive, partiell competitive, non-competitive) which gives the best fitting results. […]

[3] = biological target: DPII (Homo sapiens, UniProt Q9UHL4); test: DPII assay; format: biochemical; details: for Selectivity DPII(IC50)/DPIV(Ki): ratio IC50 DPII / Ki DP IV; for IC50: sodium acetate buffer pH 5.5, Gly-Pro-AMC 1 mM
Method: (§1) Determination of IC50 values for DPII and DP9 are done similarly as described for DP IV.
For DPII instead of the HEPES buffer a 0.2 M sodium acetate buffer pH 5.5 is used. As substrate Gly-Pro-AMC is used in a final concentration of 1 mM.

[4] = biological target: DP9 (Homo sapiens, UniProt Q86TI2); test: DP9 assay; format: biochemical; details: for Selectivity DP9(IC50)/DPIV(Ki): ratio IC50 DP9 / Ki DP IV
Method: as §1
For DP9 Gly Pro-AMC is used as substrate in a final concentration of 0.25 mM.

[5] = test system: liver cell carcinoma cell line Hep-G2; test: Cytotoxicity screening and LD50 determination on Hep-G2 (LDH, CytoTox-One); format: cell-based; details: 100 μM; for Cytotox 100 μM (%) HEPG2 / Viability 100 μM (%) HEP-G2: 24 h; for Cytotox 100 μM (%) HEPG2: LDH activity in cell culture media, lysed untreated cells = 100%; for Viability 100 μM (%) HEP-G2: LDH of lysed cells, untreated control = 100%; for Observed cytotox: Hep-G2, observation of the cells
Method: Cytotoxicity of the compounds may be screened using the liver cell carcinoma cell line Hep-G2.
After 24 h of cultivation in a 96 well plate (50 000 cells/well) compounds (dissolved in DMSO) are added and cytotoxicity and vitality of the cells are analysed after another 24 h of cultivation using the CytoTox-One Homogenoeous membrane toxicity assay (Promega).
Three concentrations (100 μM, 2 μM, 40 nM) of each compound are analysed in triplicates. The final DMSO concentration was 1%.
For cytotoxicity the LDH activity in the cell culture media after 24 h of incubation are analysed. The untreated control is set to 0% cytotoxicity. For the 100% value LDH activity of lysed untreated cells are analysed.
For viability cell culture media are removed from the cells and all cells are lysed using the lysis buffer. LDH activity is determined and untreated control is set to 100% viability.
For determination of LD50 the liver carcinoma cell line HEP-G2 and the neuroblastoma cell line SY5Y may be used. The effect of 8 serial dilutions of the compounds (highest concentration 1 mM) is investigated as described above.
The cytotoxicity of certain example compounds (in each case prepared by preparative synthesis) was screened using Hep-G2 cells. Compounds were tested in concentrations of 100 μM, 2 μM and 40 nM.

[6] = Caco-2 transport assay; format: in vitro ADME, human; details: human, Caco-2, pH 7.5; for Papp A→B: apical to basal; for Papp B→A: basal to apical
Method: (§2) The concentration of compounds in the Caco experiments may be determined from their potency to inhibit recombinant human DP IV.
(§3) Reaction is started by addition of 20 μl rhDP IV and release of pNA was monitored at 405 nm. Samples are analyzed in several dilutions (undiluted, 1:10, 1:[…]). Dilutions are done in the Caco assay buffer. Activity measured with Caco-assay buffer alone is set to 100% and inhibitor concentration is calculated from the dilutions resulting in 20 to 80% inhibition according to the equation for competitive inhibition.
(§4) [formula] • I=inhibitor concentration • v0=velocity of the reaction without inhibitor (Caco assay buffer alone) • vi=velocity of the reaction with inhibitor sample • Ki=Ki-value of the compound • DF=dilution factor of the sample Transport Assay
(§5) The human colon adenocarcinome cell line Caco-2 are grown in 6- or 24-transwell microplates (Costar) for 21 days with MEM-alpha containing 10% FBS and 0.5% Gentamycin (Invitrogen). After 21 days of cultivation integrity of the cell layer are assessed by measurement of the transepitelial electrical resistance.
(§6) Transport measurements are carried out in triplicates at a pH of 7.5. For each compound and direction (apical to basal (a-b), basal to apical (b-a)) two separate experiments are done. Samples are collected from the donor and acceptor compartments at the beginning of the experiment and after 60 min (for 6-well plates, Donor at 0 and 120 min, Acceptor at 15, 30, 60 and 120 min).
(§7) Samples are analyzed in several dilutions for their ability to inhibit human recombinant DP IV and compound concentrations may be calculated using the prior determined Ki-value (see above).
(§8) The permeability coefficient Papp is calculated according to the following equation:
(§9) [formula] • VA=Volume of the acceptor compartment • A=Area of the transwell membrane • t=sampling time • cAt=concentration in the acceptor compartment at sampling time • CDO=concentration in the donor compartment at t=0
(§10) Papp-values>1e-5 cm/s are assessed as good permeable, value<1e-6 cm/s as not permeable. Papp-values in between as medium permeable. Compounds where no significant difference were found between a-b and b-a transport are assessed to be passive transported.

[7] = test system: Caco-2 monolayer; test: Caco-2 transport assay; format: in vitro ADME, human; details: assessment of permeability and transport type
Method: as §2, §3, §4, §5, §6, §7, §8, §9, §10

[8] = biological target: T1, DP IV; test: DP IV inhibition IC50, parallel-synthesis compounds tested directly following synthesis (without purification); format: biochemical; parameters: IC50 DP4; other: tested directly following parallel synthesis, without purification; compounds of formula (Ib) from parallel synthesis, tested directly following synthesis; details: DP IV inhibition; compounds of formula (Ib) from parallel synthesis, tested directly following synthesis (without purification); read-out: IC50
Method in brief: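 Porcine kidney or recombinant human enzyme (~40-50 μU/ml, HEPES buffer) hydrolysing Gly-Pro-pNA at room temperature, with 5% DMSO final; 11-point 1:2 dilutions from 100 μM final, in duplicate. pNA release read at 405 nm over ~18 min; slopes vs solvent control give residual activity, and IC50 comes from a 4-parameter fit.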

[9] = test system: male Sprague Dawley rats; test: Circadian courses of activity, feeding and drinking behaviour; body weight, food and fluid consumption during chronic administration; format: in vivo, rat; details: vs vehicle
Method: Example 130b as hydrochloride salt was dissolved in tap water in concentrations of 0.03, 0.1 and 0.3 mg/ml. Assuming a daily fluid intake of approx. 30 ml per animal (animal's weight: approx. 300 g), these concentrations should result in doses of approx. 3, 10 and 30 mg/kg/day. The solutions were prepared freshly every day. During chronic administration, solution offer was limited to 40 ml per day for each animal.
Imipramine was dissolved 0.5% Natrosol and administered once daily i.p. for 8 days (test group TG 11, see below) with a dose of 15 mg/kg/day in a volume of 1 ml/kg.
216 male Sprague Dawley rats. The animals were 6 weeks old at the start of the study. They were housed in groups of 4 animals (“acute animals”) or in single cages (“chronic animals”) at 12 h/12 h light/dark (start of the light phase at 2 a.m.), 20° C., 60% rH. Animals were provided by Elevage Janvier, France.
During the 7 days lasting period of chronic compound administration, animals were kept singly. On the first day they were kept in single Macrolon home cages. On the next day they were transferred to activity monitoring cages and kept there for 3 days. For the following 3 days they returned to their home cages (single housing).
Animals received the test compound chronically via the drinking fluid. The reference compound Imipramine was given i.p. (one administration per day, one hour before the respective tests). Fluid supply was restricted to 40 ml per day for all test groups. On the first day of chronic test compound exposure, animals were kept singly in standard single home cages to enable an individual assessment of test compound intake. On the second day, animals were transferred to infrared monitoring cages for 3 days. Food and fluid offer were the same as in the home cage. Measuring rearing activity near fluid bottles and food grid enabled an assessment of the time structure of food and water (compound) consumption. Behavioural observation started one hour before the beginning of the dark phase (2 p.m.). After 22 hours, body weight, food and fluid consumption were measured. 2 hours later, the next recording started.
Raw data were provided as computer files accompanied by written protocol sheets. As the animals were still adapting to the environment and administration the time courses of the following parameters were calculated only for the last day of registration: • Food and fluid intake (time %) • Number of feeding and […] bouts • Meal pattern parameters reflecting e.g. the duration and recurrence of feeding and drinking bouts • Total distance travelled (cm/min) • Small movements (cm/min) • Distance travelled with rapid locomotion (cm/min) • Distance travelled with slow locomotion (cm/min) • Immobility (time %) • Use of available space (%) • Locomotor stereotypies (score, first hour of the dark phase only) • Rearing (time %) • Number of rearing acts (N) Feeding and Drinking Bouts and Bout-Related Analysis:
On the basis of high-resolution infrared beam recordings, feeding and drinking is identified by means of beam interruption in the upper frame near to the positions of food or water. Feeding or drinking acts are then defined as temporally contingent behavioural pattern separated from each other by intervals not longer than 0.5 seconds. Normally, several acts form a feeding or drinking bout. The intervals within a bout are definitely shorter than between subsequent bouts. A threshold interval can be set to distinguish between intra-bout and inter-bout intervals.
Stereotyped locomotion was assessed by means of statistical comparisons between the observed locomotor sequences (as described by the movement from one of the 4×4 subsquares to another) and a “random walk”. The comparison is performed at 5 different levels:
The coefficient of locomotor stereotypies (SC, in %) at each level has a value of SC=0 when there are no regularities within the movement pattern (random walk). […]

[10] = circadian registration, Imipramine 15 mg/kg/day i.p., Example 130b approx. 3, 10, 30 mg/kg/day
[11] = Imipramine 15 mg/kg/day i.p., Example 130b hydrochloride approx. 3, 10, 30 mg/kg/day via drinking fluid

DP9, sequence (Q86TI2 whole entry, species assumed): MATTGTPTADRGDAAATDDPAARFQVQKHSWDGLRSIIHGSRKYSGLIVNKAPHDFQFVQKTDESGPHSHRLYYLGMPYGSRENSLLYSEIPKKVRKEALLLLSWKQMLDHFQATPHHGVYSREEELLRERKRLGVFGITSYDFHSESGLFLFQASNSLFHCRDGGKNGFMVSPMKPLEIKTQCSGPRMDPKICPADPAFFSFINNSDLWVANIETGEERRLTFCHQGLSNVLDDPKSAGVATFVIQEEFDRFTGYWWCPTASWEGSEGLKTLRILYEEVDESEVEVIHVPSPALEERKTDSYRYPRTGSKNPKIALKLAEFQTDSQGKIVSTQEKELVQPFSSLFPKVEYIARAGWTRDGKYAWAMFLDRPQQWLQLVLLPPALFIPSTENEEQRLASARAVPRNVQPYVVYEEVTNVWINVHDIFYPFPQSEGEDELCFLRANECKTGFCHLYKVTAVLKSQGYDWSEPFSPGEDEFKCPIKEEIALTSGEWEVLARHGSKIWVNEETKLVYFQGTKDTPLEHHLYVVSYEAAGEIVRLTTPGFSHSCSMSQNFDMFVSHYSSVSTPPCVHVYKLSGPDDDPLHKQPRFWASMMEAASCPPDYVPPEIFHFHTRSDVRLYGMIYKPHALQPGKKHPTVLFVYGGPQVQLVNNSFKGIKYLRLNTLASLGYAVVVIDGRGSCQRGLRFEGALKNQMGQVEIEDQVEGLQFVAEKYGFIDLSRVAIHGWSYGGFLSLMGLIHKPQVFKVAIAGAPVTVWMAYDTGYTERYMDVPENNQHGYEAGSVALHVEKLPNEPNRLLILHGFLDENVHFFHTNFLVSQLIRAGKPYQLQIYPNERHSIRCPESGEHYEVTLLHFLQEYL
T1 sequence (P27487 whole entry): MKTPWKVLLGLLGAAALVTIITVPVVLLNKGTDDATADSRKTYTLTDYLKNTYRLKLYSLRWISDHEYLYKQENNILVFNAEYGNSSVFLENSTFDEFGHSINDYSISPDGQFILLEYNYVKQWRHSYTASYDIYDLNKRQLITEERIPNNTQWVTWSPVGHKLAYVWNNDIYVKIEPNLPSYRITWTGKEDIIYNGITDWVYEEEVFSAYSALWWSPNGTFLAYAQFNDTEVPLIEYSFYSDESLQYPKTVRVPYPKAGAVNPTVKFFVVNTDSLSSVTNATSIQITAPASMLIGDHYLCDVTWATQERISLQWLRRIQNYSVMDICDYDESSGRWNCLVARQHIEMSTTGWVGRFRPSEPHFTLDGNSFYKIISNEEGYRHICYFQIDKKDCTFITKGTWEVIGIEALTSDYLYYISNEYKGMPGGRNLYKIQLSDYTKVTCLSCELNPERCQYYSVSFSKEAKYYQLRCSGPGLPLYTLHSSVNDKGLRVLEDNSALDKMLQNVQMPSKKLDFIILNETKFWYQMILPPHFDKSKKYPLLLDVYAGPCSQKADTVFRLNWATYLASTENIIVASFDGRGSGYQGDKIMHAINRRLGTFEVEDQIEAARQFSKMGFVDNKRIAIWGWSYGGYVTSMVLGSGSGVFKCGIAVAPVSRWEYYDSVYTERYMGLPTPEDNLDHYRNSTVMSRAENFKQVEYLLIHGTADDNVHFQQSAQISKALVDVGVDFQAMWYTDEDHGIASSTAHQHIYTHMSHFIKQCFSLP

Compound | IC50 [1] [nM] | Ki [2] [nM] | Selectivity DPII(IC50)/DPIV(Ki) [3] | IC50 [3] [nM] | IC50 ([4]; Gly Pro-AMC 0.25 mM) [nM] | Selectivity DP9(IC50)/DPIV(Ki) [4] | Cytotox 100 μM (%) HEPG2 [5] [%] | Viability 100 μM (%) HEP-G2 [5] [%] | Observed cytotox [5] [% spheric] | Papp A→B [6] [×10⁻⁶ cm/s] | Papp B→A [6] [×10⁻⁶ cm/s] | Transport [7] | IC50 [8] [nM] | time immobile ([9]; circadian registration, Imipramine 15 mg/kg/day i.p.) | horizontal and vertical (locomotor) activity [9, 10] | time accessing food and water (fluid) [9, 10] | locomotor stereotypies (stereotypy index) ([9]; first hour of the dark phase, Imipramine: level 2, 3 and 4 stereotypies, Example 130b: usage of available space or stereotypy index) | body weight (gain) [9, 11] | fluid intake [9, 11] | food intake [9, 11]
NCc1c(-c2ccc(Cl)cc2Cl)ncn1C(CO)c1ccccc1 (stereo not shown) [Example 126b, 2-[5-aminomethyl-4-(2,4-dichloro-phenyl)-imidazol-1-yl]-2-phenyl-ethanol] | 145 | 10.6 | 1,887 | 20000 | 70700 | 6,670 | 5.8 | 118.8 | 10 | 22.5 | 16.5 | good (Papp-values>1e-5 cm/s are assessed as good permeable) | – | – | – | – | – | – | – | –
COc1cccc(Cn2cnc(-c3ccc(Cl)cc3Cl)c2CN)c1 [Example 59b, C-[5-(2,4-dichloro-phenyl)-3-(3-methoxy-benzyl)-3H-imidazol-4-yl]-methylamine] | 221 | 15.3 | 2,542 | 38900 | – | 7,974 | 1.2 | 116.3 | 10 | 49.7 | 38.3 | good, passive | 3700 | – | – | – | – | – | – | –
CN(C)CCCN1c2ccccc2CCc2ccccc21 [Imipramine, Imipramine Hydrochloride, reference compound] | – | – | – | – | – | – | – | – | – | – | – | – | – | spent more time immobile | clearly reduced | lower amount of time | reduction | significantly reduced | significantly reduced | significantly reduced

— patent US7728146B2, “Enzyme inhibitors” (Probiodrug AG, priority 2006, dated 2010)
